Results as given in patent US20210196731A1, “COMPOSITIONS AND METHODS FOR TREATING OCULAR INFLAMMATION AND OCULAR SCARRING” (priority 2018, published 2021).

Experiments:
Assay type in all cases: cell-based, human
[1] = tested on: pSMAD2/3; assay: Western blot of HTCF protein lysate, pSMAD2/3; conditions: ASA 500 or 1000 μg/ml, APHS 12 μg/ml, 48 hrs; for ratio of pSMAD2/3 to tSMAD2/3 (proportion of active to total SMAD2/3): AHGFs; for AHGF-induced levels of pSMAD2/3: with or without gentamicin 250 or 500 μg/ml
Experimental: (§1) Cells were lysed in lysis buffer (PhosphoSafe Extraction Reagent, Novagen) containing a protease inhibitor cocktail (P2714, Sigma-Aldrich). Crude protein lysate was quantified using a Pierce BCA protein assay kit (ThermoFisher, Mississauga, ON) and 10 ug from each sample was resolved using a Novex WedgeWell 4-20% tris-glycine gel (Invitrogen). Using an iBlot Gel Transfer Device (IB1001, Invitrogen), the separated protein was transferred to a nitrocellulose membrane (1B301001, iBlot Transfer Stack, Invitrogen) which was then blocked with 5% (w/v) bovine serum albumin (Sigma-Aldrich) in Tris buffered saline (TBST) for 1 hour at room temperature. The membranes were incubated overnight at 4° C. with primary antibody diluted in TBST containing 5% BSA (w/vol). […] Visualization was accomplished by applying WesternBright Quantum chemiluminescent reagent (Advansta, Inc.), with GAPDH used as a protein loading control. Imaging and relative densiometric quantification was accomplished using a ChemiDoc MP System (Bio-Rad Laboratories, Inc.) connected to Image Lab (Version 6, Bio-Rad Laboratories, Inc.).

[2] = tested on: HTCFs; assay: Lipid Mediator Secretion Assay II (ASA or APHS with and without gentamicin, LC-MS/MS); conditions: for CytoM1+TGFb1 induced COX2 activity, as measured through PGE2 and kPGF1a secretion / secretion of acetylated-COX2 products, as measured through 5-HETE and 15-HETE secretion: ASA 500 or 1000 μg/ml, with or without gentamicin 250 or 500 μg/ml, 6-48 hrs; for secretion of acetylated-COX2 products, as measured through 5-HETE and 15-HETE secretion: CytoM1+TGFb1
Experimental: To this end, as before, multiple primary HTCF cell lines were cultured in DMEM w/10% FBS in 6-well culture plates, incubated at 37° C. and 5% CO2, until 90% confluent. The culture media was removed, wells washed with PBS, and then fresh DMEM w/0% FBS was added. After 24 hrs of serum starvation, fresh DMEM w/0% FBS was added, this time containing a physiologically relevant inflammation/wound healing induction mixture (1 ng/ml each of: IL-1b, TNFa, IFNγ, TGFb). After 12 hrs incubation, the induction media was removed, the wells were washed with PBS and fresh DMEM w/0% FBS was added containing one of ten experimental treatments for an incubation period of 48 hrs: 1) non-induced control (NIC: received DMEM w/0% FBS instead of the induction media), and 2) CytoM1+TGFB1 (DMEM w/0% FBS and 1 ng/ml each of: IL-1b, TNFa, IFNγ, TGFb), and 3) CytoM1/TGFB1/Gent250 (DMEM w/0% FBS, 1 ng/ml each of TGFB1, TGFB2, VEGF, CCN2 and 250 μg/ml gentamicin), and 4) CytoM1/TGFB1/Gent500 (DMEM w/0% FBS, 1 ng/ml each of TGFB1, TGFB2, VEGF, CCN2 and 500 μg/ml gentamicin), and 5) CytoM1/TGFB1/ASA500 (DMEM w/0% FBS, 1 ng/ml each of TGFB1, TGFB2, VEGF, CCN2, and 500 μg/ml ASA), and 6) CytoM1/TGFB1/ASA500/Gent250 (DMEM w/0% FBS, 1 ng/ml each of TGFB1, TGFB2, VEGF, CCN2, 500 μg/ml ASA and 250 μg/ml gentamicin), and 7) CytoM1/TGFB1/ASA1000 (DMEM w/0% FBS, 1 ng/ml each of TGFB1, TGFB2, VEGF, CCN2 and 1000 μg/ml ASA), and 8) CytoM1/TGFB1/ASA1000/Gent500 (DMEM w/0% FBS, 1 ng/ml each of TGFB1, TGFB2, VEGF, CCN2, 1000 μg/ml ASA, and 500 μg/ml gentamicin), and 9) CytoM1/TGFB1/APHS12 (DMEM w/0% FBS, 1 ng/ml each of TGFB1, TGFB2, VEGF, CCN2 and 12 μg/ml o-(acetoxyphenyl)hept-2-ynyl sulfide (APHS), and 10) CytoM1/TGFB1/APHS12/Gent250 (DMEM w/0% FBS, 1 ng/ml each of TGFB1, TGFB2, VEGF, CCN2, 12 μg/ml o-(acetoxyphenyl)hept-2-ynyl sulfide (APHS) and 250 μg/ml gentamicin). At 6, 12, 24 and 48 hrs after addition of the experimental treatments, 250 ul of supernatant was removed from each well, replaced with 250 ul of fresh DMEM w/0% FBS, and stored at −80° C. for subsequent LC-MS/MS analysis. After 48 hrs, the wells were washed with ice cold PBS three times and total cellular protein from the HTCF monolayer was collected for quantification and subsequent western blot analyses. The absolute quantity of protein within each culture well's HTCF monolayer was used as a means to standardize the relative secretion of lipid mediators by HTCFs into the culture well's supernatant.
This is a well-established method to determine the relative activity of cyclooxygenase, acetyl-COX2 and lipoxygenase biosynthetic pathways. In brief, the ratios of the integrated areas of the chromatographic peaks corresponding to each analyte and the integrated areas of the peaks corresponding to each analyte's internal standard (with known absolute quantity) are used to determine the relative quantity of each analyte in a given sample. After supernatant sample collection, 250 ul of methanol containing 100 μg of each deuterated internal standard was added. Samples were then vigorously vortexed and centrifuged at 10,000 g for 10 min before loading onto solid-phase extraction cartridges (Strata-X 33 um Polymeric Reversed Phase, 10 mg, Phenomenex 8B-S100-AAK), that were previously activated with 2 ml methanol and rinsed with 2 ml water. […] After washing with 5 ml water, extracts were eluted with 1 ml methanol. Solvent was then evaporated under vacuum in a SpeedVac centrifuge, and the extract was resuspended in 100 ul acetonitrile/water 60:40 (v/v). An aliquot of 20 ul was injected into the LC-MS/MS system for analysis. […] A Sciex Triple Quad 6500+ mass spectrometer with multiple reaction monitoring was used in negative ion mode. The chromatographic profile of the ion count for each m/z transition was monitored, and the area under the peaks (ion intensity vs elution time) was integrated using commercial software (MultiQuant, Sciex).

[3] = tested on: αSMA; assay: Western blot of HTCF protein lysate, αSMA
Experimental: as §1

[4] = ASA 500 or 1000 μg/ml, APHS 12 μg/ml, with or without gentamicin 250 or 500 μg/ml, 48 hrs (FIG. 17B)

Row | Structure (SMILES) | ratio of pSMAD2/3 to tSMAD2/3 (proportion of active to total SMAD2/3) [1] | AHGF-induced levels of pSMAD2/3 [1] | net enzymatic activity, acetylated-COX2 vs COX2 production of lipid mediators ([2]; APHS 12 μg/ml, alone or with gentamicin 250 μg/ml, vs inf. cytokines control) | CytoM1+TGFb1 induced COX2 activity, as measured through PGE2 and kPGF1a secretion ([2]; APHS 12 μg/ml) | secretion of acetylated-COX2 products, as measured through 5-HETE and 15-HETE secretion ([2]; APHS 12 μg/ml) | AHGF-induced expression of αSMA [3, 4] | relative amount of COX2 products relative to inf. cytokines control ([2]; ASA 500 μg/ml) | balance of enzymatic activity (COX2:acetyl-COX2 ratio) ([2]; ASA 500 μg/ml, alone or with gentamicin 250) | relative amount of COX2 products relative to inf. cytokines control ([2]; ASA 1000 μg/ml) | balance of enzymatic activity (COX2:acetyl-COX2 ratio) ([2]; ASA 1000 μg/ml, alone or with gentamicin 500) | AHGF-induced expression of αSMA ([3]; ASA 100, 400, 1600 μg/ml, 48 hrs (FIG. 16))
1 | CCCCC#CCSc1ccccc1OC(C)=O [APHS, o-(acetoxyphenyl)hept-2-ynyl sulfide] | significantly reduce the proportion of active to total SMAD2/3 from AHGF-induced levels | significantly reduced | significantly shift the net enzymatic activity toward net acetylated-COX2 production of lipid mediators | significantly inhibit COX2 activity | profoundly and significantly increased the secretion of acetylated-COX2 products relative to all other treatment groups | significantly reduced |  |  |  |  | 
2 | CC(=O)Oc1ccccc1C(=O)O [ASA, acetylsalicylic acid] | significantly reduce the proportion of active to total SMAD2/3 from AHGF-induced levels | significantly reduced |  | significantly inhibit CytoM1+TGFb1 induced COX2 activity | either no effect or a significantly smaller effect on acetylated-COX2 products relative to the ASA/Gent experimental group | significantly reduced | significantly reduce the relative amount of COX2 products relative to the inf. cytokines control group | positive values for the COX2:acetyl-COX2 ratio at all timepoints | significantly reduce the relative amount of COX2 products relative to the inf. cytokines control group | unable to significantly shift the balance of enzymatic activity toward net actyl-COX2 production relative to COX2 production | significantly impaired the AHGF-induced expression of αSMA
